In article PMC9126592, “sp^2-Iminosugars targeting human lysosomal β-hexosaminidase as pharmacological chaperone candidates for late-onset Tay-Sachs disease” (Journal of Enzyme Inhibition and Medicinal Chemistry, 2022):

Key:
Assay type in all cases: biochemical
[1] = molecular target: Total Hex (human lysosomal β-hexosaminidase); assay: Inhibition of total β-hexosaminidase in human fibroblast lysates; details: mean of three determinations
Experimental: For determination of lysosomal enzyme activities in cell lysates, cells were scraped into ice-cold H2O (10^6 cells mL^−1) and lysed by sonication. Insoluble materials were removed by centrifugation at 15,000 rpm for 5 min and protein concentrations were determined with Protein Assay Rapid Kit (WAKO, Tokyo, Japan). 10 µL of the lysates in 0.1% Triton X-100 in distilled water were incubated at 37 °C with 20 µL of the substrate solution in 0.1 M citrate buffer, pH 4.5, in absence or presence of increasing concentrations of the chaperones. The substrates were 4-methylumbelliferone (4-MU)-conjugated β-D-glucopyranoside (for GCase), α-D-glucopyranoside (for α-glucosidase), α-D-galactopyranoside (for α-Galase), β-D-galactopyranoside (for β-galactosidase), N-acetyl-β-D-glucosaminide (for total β-hexosaminidase), N-acetyl-β-D-glucosaminide-6-sulfate sodum salt (for HexA) and α-N-acetyl-D-galactosaminide for α-N-acetylgalactosaminidase. HexA activities in cell lysates were also determined in 0.1 M citrate buffer at pH 5 or pH 7, supplemented with sodium taurocholate (0.8% w/v). The reactions were terminated by adding 0.2 ml of 0.2 M glycine sodium hydroxide buffer (pH 10.7). The liberated 4-methylumbelliferone was measured in the black-well plate with a Perkin Elmer Luminescence Spectrometer (excitation wavelength: 340 nm; emission: 460 nm). One unit of enzyme activity was defined as nmol of 4-methylumbelliferone released per hour and normalised for the amount of protein contained in the lysates.

[2] = molecular target: β-hexosaminidase from human placenta; assay: Commercial enzyme inhibition assay, β-hexosaminidase from human placenta; details: mean ± SD (n = 3); competitive
Experimental: (§1) Inhibition constant (Ki) values were determined by spectrophotometrically measuring the residual hydrolytic activities of the glycosidases against the respective o- (for β-galactosidase from E. coli) or p-nitrophenyl α- or β-D-glycopyranoside (for other glycosidases) in the presence of the iminosugars. Each assay was performed in phosphate buffer or phosphate-citrate buffer (for α- or β-mannosidase, amyloglucosidase or β-N-acetylglucosaminidase) at the optimal pH for the enzymes. The reactions were initiated by addition of the enzyme to a solution of the substrate in the absence or presence of various inhibitor concentrations. The mixture was incubated for 10–30 min at 37 °C or 55 °C (for amyloglucosidase) and the reaction was quenched by addition of 1 m Na2CO3. Reaction times were appropriate to obtain 10%–20% conversion of the substrate in order to achieve linear rates. The absorbance of the resulting mixture was determined at 405 nm. Approximate values of Ki were determined using a fixed concentration of substrate (around the KM value for the different glycosidases) and various inhibitor concentrations. Full Ki determinations and the enzyme inhibition mode were determined from the slope of Lineweaver-Burk plots and double reciprocal analysis.

[3] = molecular target: β-hexosaminidase from Jack bean; assay: Commercial enzyme inhibition assay, β-hexosaminidase from Jack bean; details: mean ± SD (n = 3); competitive
Experimental: as §1

SMILES | IC50 [1] | Ki [2] | Ki [3]
CC(=O)N[C@H]1CN(C(=S)NCc2ccccc2)[C@H](CO)[C@H](O)[C@@H]1O [Compound 3, 2-Acetamido-1,2-dideoxy-5-N-(N’-benzylthiocarbamoyl)galactonojirimycin] | > 100000 nM | 16000 ± 500 nM | 5100 ± 200 nM
CC(=O)N[C@H]1CN(C(=S)Nc2ccccc2)[C@H](CO)[C@H](O)[C@@H]1O [Compound 4, 2-Acetamido-1,2-dideoxy-5-N-(N’-phenylthiocarbamoyl)galactonojirimycin] | 10900 nM | 240 nM | 65 nM
CC(=O)NC1CN2C(=NCc3ccccc3)SCC2C(O)C1O (stereo not drawn) [Compound 7, 2-Acetamido-1,2-dideoxy-5-N,6-S-(N’-benzyliminomethylidene)-6-thiogalactonojirimycin] | 2200 nM | 26 ± 1 nM | 88 ± 3 nM
CCCCCCCCN=C1SCC2C(O)C(O)C(NC(C)=O)CN12 (stereo not drawn) [Compound 6, 2-Acetamido-1,2-dideoxy-5-N,6-S-(N’-octyliminomethylidene)-6-thiogalactonojirimycin] | 1300 nM | 26 ± 1 nM | 48 ± 2 nM
CC(=O)NC1CN2C(=Nc3ccccc3)SCC2C(O)C1O (stereo not drawn) [Compound 8, 2-Acetamido-1,2-dideoxy-5-N,6-S-(N’-phenyliminomethylidene)-6-thiogalactonojirimycin] | 330 nM | 44 ± 2 nM | 130 ± 10 nM
CCCCNC(=S)N1C[C@H](NC(C)=O)[C@@H](O)[C@@H](O)[C@H]1CO [Compound 1, 2-Acetamido-1,2-dideoxy-5-N-(N’-butylthiocarbamoyl)galactonojirimycin] | > 100000 nM | 4800 ± 200 nM | 3000 ± 100 nM
CCCCN=C1SCC2C(O)C(O)C(NC(C)=O)CN12 (stereo not drawn) [Compound 5, 2-Acetamido-1,2-dideoxy-5-N,6-S-(N’-butyliminomethylidene)-6-thiogalactonojirimycin] | 2600 nM | 55 ± 2 nM | 140 ± 10 nM
CCCCCCCCNC(=S)N1C[C@H](NC(C)=O)[C@@H](O)[C@@H](O)[C@H]1CO [Compound 2, 2-Acetamido-1,2-dideoxy-5-N-(N’-octylthiocarbamoyl)galactonojirimycin] | > 100000 nM | 3000 ± 100 nM | 7200 ± 200 nM
